In assay [1] the target is Nonstructural protein 1 (Influenza A virus, UniProt Q194T2). The class given is functional, Influenza A virus (A/California/07/2009(H1N1)).
The target in assay [2] is T1, Protein skinhead-1 (Caenorhabditis elegans, UniProt P34707).
T1 sequence (P34707 whole entry): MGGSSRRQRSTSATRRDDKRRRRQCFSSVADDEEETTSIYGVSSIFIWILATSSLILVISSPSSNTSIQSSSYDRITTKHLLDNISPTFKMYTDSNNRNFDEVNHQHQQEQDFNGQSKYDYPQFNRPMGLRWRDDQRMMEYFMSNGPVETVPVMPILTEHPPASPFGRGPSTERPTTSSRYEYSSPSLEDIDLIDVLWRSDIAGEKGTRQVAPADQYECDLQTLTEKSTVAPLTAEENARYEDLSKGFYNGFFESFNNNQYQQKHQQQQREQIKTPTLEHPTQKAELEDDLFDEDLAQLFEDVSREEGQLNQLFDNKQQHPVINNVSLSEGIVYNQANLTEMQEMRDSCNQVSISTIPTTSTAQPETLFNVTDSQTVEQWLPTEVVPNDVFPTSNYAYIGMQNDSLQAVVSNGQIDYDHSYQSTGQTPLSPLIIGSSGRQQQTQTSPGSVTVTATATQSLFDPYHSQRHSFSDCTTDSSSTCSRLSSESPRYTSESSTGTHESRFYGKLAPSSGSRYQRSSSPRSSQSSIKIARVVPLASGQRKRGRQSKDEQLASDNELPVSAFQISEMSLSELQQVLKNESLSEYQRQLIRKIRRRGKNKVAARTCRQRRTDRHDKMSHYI
The class given is functional.

Assay [3] addresses T2, Sentrin-specific protease 7 (Homo sapiens, UniProt Q9BQF6).
T2 sequence (Q9BQF6 whole entry): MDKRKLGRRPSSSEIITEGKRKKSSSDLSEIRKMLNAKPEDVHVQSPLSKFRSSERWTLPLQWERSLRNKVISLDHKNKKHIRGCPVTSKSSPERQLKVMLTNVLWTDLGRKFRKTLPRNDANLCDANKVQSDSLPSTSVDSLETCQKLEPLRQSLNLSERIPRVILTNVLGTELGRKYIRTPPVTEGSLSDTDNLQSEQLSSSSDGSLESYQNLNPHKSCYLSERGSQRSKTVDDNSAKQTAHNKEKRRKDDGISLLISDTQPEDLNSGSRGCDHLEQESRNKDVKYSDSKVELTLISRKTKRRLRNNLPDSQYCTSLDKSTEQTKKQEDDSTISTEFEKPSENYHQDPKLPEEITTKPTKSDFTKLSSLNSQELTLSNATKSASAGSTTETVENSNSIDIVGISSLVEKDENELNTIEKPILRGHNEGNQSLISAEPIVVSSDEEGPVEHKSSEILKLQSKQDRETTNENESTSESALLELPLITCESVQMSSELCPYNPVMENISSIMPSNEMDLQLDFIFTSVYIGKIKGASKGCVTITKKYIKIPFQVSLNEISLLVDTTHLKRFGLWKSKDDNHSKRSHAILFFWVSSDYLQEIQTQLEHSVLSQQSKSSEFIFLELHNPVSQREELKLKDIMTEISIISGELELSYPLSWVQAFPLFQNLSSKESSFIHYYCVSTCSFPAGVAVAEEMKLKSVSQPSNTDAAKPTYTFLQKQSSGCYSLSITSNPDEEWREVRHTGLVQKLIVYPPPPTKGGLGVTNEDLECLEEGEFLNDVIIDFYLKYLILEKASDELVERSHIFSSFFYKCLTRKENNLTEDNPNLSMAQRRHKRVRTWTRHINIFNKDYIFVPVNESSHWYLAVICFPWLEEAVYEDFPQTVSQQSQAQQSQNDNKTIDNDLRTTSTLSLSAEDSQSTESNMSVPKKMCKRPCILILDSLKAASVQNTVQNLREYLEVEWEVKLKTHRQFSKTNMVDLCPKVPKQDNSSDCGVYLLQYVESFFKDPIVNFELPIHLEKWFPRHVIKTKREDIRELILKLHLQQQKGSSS
Type of assay: functional.

Assay [4] concerns the target T3, Sentrin-specific protease 6 (Homo sapiens, UniProt Q9GZR1).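 Note: Luminescence-based dose-response confirmatory assay of SENP6 inhibition, following up an ultra-high-throughput screen.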
T3 sequence (Q9GZR1 whole entry): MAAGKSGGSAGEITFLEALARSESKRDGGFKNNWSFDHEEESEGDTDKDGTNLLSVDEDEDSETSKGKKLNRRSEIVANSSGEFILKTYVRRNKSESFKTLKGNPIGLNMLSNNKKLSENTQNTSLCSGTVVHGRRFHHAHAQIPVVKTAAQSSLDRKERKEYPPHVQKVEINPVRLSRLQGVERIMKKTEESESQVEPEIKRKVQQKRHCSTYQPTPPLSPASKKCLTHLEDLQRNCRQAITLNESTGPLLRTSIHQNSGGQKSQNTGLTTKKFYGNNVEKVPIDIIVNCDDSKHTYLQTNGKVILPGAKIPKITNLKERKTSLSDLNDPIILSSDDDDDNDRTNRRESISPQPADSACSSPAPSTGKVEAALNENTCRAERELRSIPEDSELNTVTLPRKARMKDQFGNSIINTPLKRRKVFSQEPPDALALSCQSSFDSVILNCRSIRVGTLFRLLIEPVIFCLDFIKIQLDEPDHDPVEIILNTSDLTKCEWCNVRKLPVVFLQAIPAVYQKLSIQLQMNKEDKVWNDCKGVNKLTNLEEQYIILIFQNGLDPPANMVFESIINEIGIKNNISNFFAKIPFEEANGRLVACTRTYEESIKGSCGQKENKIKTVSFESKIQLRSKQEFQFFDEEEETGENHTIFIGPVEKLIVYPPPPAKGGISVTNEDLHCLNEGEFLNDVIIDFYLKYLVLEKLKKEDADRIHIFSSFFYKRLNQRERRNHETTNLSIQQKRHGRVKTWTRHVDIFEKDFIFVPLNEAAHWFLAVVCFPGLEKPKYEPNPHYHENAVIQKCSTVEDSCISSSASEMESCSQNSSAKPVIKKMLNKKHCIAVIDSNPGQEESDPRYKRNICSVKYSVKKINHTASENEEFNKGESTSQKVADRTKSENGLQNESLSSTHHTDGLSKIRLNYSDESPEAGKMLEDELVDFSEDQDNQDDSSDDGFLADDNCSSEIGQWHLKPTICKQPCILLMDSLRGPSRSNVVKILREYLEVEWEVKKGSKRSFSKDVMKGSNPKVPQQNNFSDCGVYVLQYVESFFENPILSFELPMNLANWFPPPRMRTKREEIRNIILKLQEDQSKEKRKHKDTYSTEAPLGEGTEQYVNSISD
The class given is functional.

From ChEMBL document CHEMBL1201862, “PubChem BioAssay data set” (2004) come the findings set out here.

Calls of active or inactive are those of the source.

Sequence of Nonstructural protein 1 (Q194T2 whole entry): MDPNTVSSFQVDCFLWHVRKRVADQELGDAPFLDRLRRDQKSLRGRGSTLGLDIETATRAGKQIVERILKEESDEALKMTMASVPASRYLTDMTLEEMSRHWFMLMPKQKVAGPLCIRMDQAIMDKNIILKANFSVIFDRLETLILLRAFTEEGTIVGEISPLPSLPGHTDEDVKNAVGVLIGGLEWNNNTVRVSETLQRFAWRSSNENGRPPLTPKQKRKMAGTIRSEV

In general, IC50 refers to the midpoint of a concentration-inhibition curve. Take `CC1CC(C)CN(C(=O)c2ccc3c(c2NCCO)C(=O)c2ccccc2C3=O)C1` (centres undefined): the IC50 in assay [1] is 13 µM (active); in assay [2], > 100 µM (inactive).

Consider `CCC(=O)N(C1=C(NC)C(=O)c2ccccc2C1=O)C(C)C`, for which the figures for the IC50 in assay [3] and in assay [4] were 33.2 µM (active) and 16.7 µM (active), respectively.
